Data taken from patent EP4606382A1, “INHIBITORS OF TANGO1 ACTIVITY AND METHODS OF USE THEREOF” (Fundació Centre de Regulació Genòmica, priority 2024, dated 2025).
Ends that are not written are not given here.

Test system: normal human skin fibroblasts
Experiment: LDH release cytotoxicity assay
Format: cell-based
Details: primary human skin fibroblasts
Protocol: To test if the peptides efficiently reduce collagen secretion also in primary cells derived from human individuals, normal human skin fibroblasts, the key producers of collagen in connective tissues, were treated with the peptides P2 and P5.
Cytotoxic effects induced by peptide treatment were determined by lactate dehydrogenase (LDH) levels in fibroblast supernatants using Cytotoxicity Assay (Promega G1780) according to the manufacturer's instructions.

| Substance | cytotoxic effects (LDH release) |
| --- | --- |
| LEKEEKLSKVDEKISHATEELETYRKRAKDLGLRKRLRKFRNK-NH2 [Peptide P5] | neither P2 nor P5 nor P2+P5 exerted cytotoxic effects |
| LRQKVEILNELYQQKEMALQKKLSQEEYERGLRKRLRKFRNK-NH2 [Peptide P2] | neither P2 nor P5 nor P2+P5 exerted cytotoxic effects |
